From US5691365A, “Nicotinic receptor antagonists in the treatment of neuropharmacological disorders” (University of Kentucky Research Foundation, priority 1995, dated 1997)
Values joined by “and” are separate entries in the source; they are usually repeats but may differ in a detail not shown here. Equal values may be shown once. “Also recorded” adds a separate entry of the source.

Assays:
[1] = tested on: [^3 H]DA release from rat striatal slices; test: [3H]DA release assay: compound-evoked (intrinsic agonist) release; assay type: cell-based; conditions: for total [3H]overflow (effect on [3H]DA release): mean ± S.E.M.; for total [3H]overflow (effect on [3H]DA release) / effect on [3H]DA release / intrinsic agonist activity (in words): rat striatal slices
Description: (§1) Biological Methods. Male Spragua-Dawley rats (150-200 g) were obtained from Harlan Laboratories (Indianapolis, Ind.) and were housed two per cage with free access to food and water in the Division of Lab Animal Resources at the College of Pharmacy at the University of Kentucky. Experimental protocols involving the animals were approved by the Institutional Animal Care and Use Committee at the University of Kentucky.
(§2) [^3 H]DA Release Assay. Rat striatal slices (500 μm thickness, 6-8 mg wet weight) were obtained as previously described (Dwoskin and Zahniser, 1986). Slices were incubated for 30 min in Krebs' buffer ([…]; 118 NaCl, 4.7 KCl, 1.2 MgCl2, 1.0 NaH2 PO4, 1.3 CaCl2, […], 11.1 glucose, 25 NaHCO3, 0.11 L-ascorbic acid nd 0.004 disodium EDTA; pH 7.4 and saturated with 95% O2 /5% CO2) in a metabolic shaker at 34°. Slices were rinsed with 15 ml of fresh buffer and incubated for an additional 30 min in fresh buffer containing 0.1 μM [^3 H]dopamine (6 slices/3 ml). Subsequently, slices were rinsed with 15 ml of fresh buffer and transferred to a glass superfusion chamber. Slices were superfused (1.0 ml/min) for 60 min with Krebs' buffer containing nomifensine (10 μm) and pargyline (10 μm) and maintained at 34° C., pH 7.4 with continual aeration (95% O2 /5% CO2). Two 5-min samples (5 ml) were collected to determine basal outflow of [^3 H]DA. N-Substituted nicotine analogues were added to the superfusion buffer after the collection of the second sample and remained in the buffer until 12 consecutive 5-min samples were collected. […] At the end of the experiment each slice was solubilized and the [^3 H] content of the tissue determined.
(§3) Radioactivity in the superfusate and tissue samples was determined by liquid scintillation spectroscopy. Fractional release for each superfusate sample was calculated by dividing the total tritium collected in each sample by the total tritium present in the tissue at the time of sample collection. Basal [^3 H]out flow was calculated from the average of the tritium collected in the two 5-min samples just before addition of the N-substituted nicotine analogue. The sums of the increase in collected tritium resulting from either exposure to the test compound or exposure to nicotine in the absence and presence of the test compound equaled total [^3 H]overflow. [^3 H]overflow was calculated by subtracting the [^3 H]outflow during an equivalent period of prestimulation from the values in samples collected during and after drug exposure. Inasmuch as the radiolabelled compounds were not separated and identified, the tritium collected in superfusate is referred to as either [^3 H]outflow or [^3 H]overflow, rather than as [^3 H]DA. [^3 H]Overflow primarily represents [^3 H]DA in the presence of nomifensine and pargyline in the superfusion buffer (Zumstein et al. 1981).

[2] = tested on: S(-)nicotine (10 μM)-evoked [^3 H]DA release from rat striatal slices; assay type: cell-based
Description: as §1, §2, §3
In these experiments, the striatal slices were superfused for 60 min with various concentrations of the analogues prior to nicotine (10 μM) exposure. Antagonist activity was evaluated by comparing the nicotine-evoked [^3 H]overflow in the absence and presence of the analogues. […] The relative order of potency of the classical and pyridine-N substituted nicotine analogues for inhibition of nicotine-evoked [^3 H]DA release from rat striatal slices is illustrated in FIG. 2 by a comparison of their IC50 values.
FIG. 2. IC50 values for N-substituted analogues of nicotine, nornicotine, and cotinine to inhibit nicotine-evoked [^3 H]DA release from rat striatal slices. Inhibition produced by the classical nicotinic inhibitors, mecamylamine (MEC) and DHBE was also determined. Slices were superfused with inhibitor for 60 min […] co-superfusion with 10 μM nicotine. Inhibition was determined by comparing [^3 H]DA release in the absence and presence of various concentrations of inhibitor. IC50 values were determined using the Logit-log plot (pseudo-Hill plot). […] IC50 for each animal was determined as the intercept of the linear regression.

[3] = Rattus norvegicus, read-out: evoked [3H]DA release relative to S(-)nicotine

Structure (SMILES) | total [3H]overflow (effect on [3H]DA release) ([1]; Table 3, 1 μM) | total [3H]overflow (effect on [3H]DA release) ([1]; Table 3, 10 μM) | total [3H]overflow (effect on [3H]DA release) ([1]; Table 3, 100 μM) | nicotinic antagonist activity / inhibition of nicotine-evoked [3H]DA release (in words) [2] | relative order of potency for inhibition of nicotine-evoked [3H]DA release (comparison of IC50 values) [2] | effect on [3H]DA release / intrinsic agonist activity (in words) ([1]; 1-100 μM) | total [3H]overflow during cosuperfusion with 10 μM nicotine [2] | also measured
CCC[n+]1cccc([C@@H]2CCCN2C)c1 [NPNI, S-N-propyl nicotinium iodide] | 0.06 ± 0.01 | 0.03 ± 0.03 | 0.03 ± 0.03 | Significant antagonist activity; also recorded: significantly lower potency and efficacy; also recorded: preferred nicotinic receptor antagonist activity | NBNB=NPNI=NnNBI=NANI>NHENI | – | – | –
CN1CCC[C@H]1c1ccc[n+](Cc2ccccc2)c1 [NBNB, S-N-benzyl nicotinium bromide] | 0.21 ± 0.12 | 0.28 ± 0.12 | 6.04 ± 0.97 | Significant antagonist activity; also recorded: significantly lower potency and efficacy; also recorded: possessing antagonist activity; also recorded: preferred nicotinic receptor antagonist activity | NBNB=NPNI=NnNBI=NANI>NHENI | evoked [^3 H]DA release and thus, possess intrinsic agonist activity at this concentration | 1.50 ± 0.55 and 1.27 ± 0.35 | –
CO[C@H]1CC=C2CCN3CCC4=C(CC(=O)OC4)[C@]23C1 [DHBE, dihydro-β-erythroidine, reference compound] | 0.02 ± 0.02 | 0.36 ± 0.22 | 2.01 ± 0.28 | inhibited but did not completely block nicotine's effect | DHBE=MEC>>NBNB | None of the compounds examined, including DHBE and mecamylmine, had any significant effect on [^3 H]DA release in the concentration range of 1-10 μM; also recorded: also evoked [^3 H]DA release; also recorded: evoked [^3 H]DA release at the highest concentration examined | – | –
CN1C(=O)CC[C@H]1c1cccnc1 [S(-)cotinine, reference compound] | – | – | – | – | – | – | – | Emax [1, 3]: 35%; total [3H]overflow (effect on [3H]DA release) ([1]; Table 2, 1 μM): 0 ± 0; total [3H]overflow (effect on [3H]DA release) ([1]; Table 2, 10 μM): 1.14 ± 0.36; total [3H]overflow (effect on [3H]DA release) ([1]; Table 2, 100 μM): 2.06 ± 0.35; effect on [3H]DA release / intrinsic agonist activity (in words) ([1]; 1-100 μM as stated, listed as Cotinine): no effect at 1 μM; effect on [3H]DA release / intrinsic agonist activity (in words) ([1]; 1-100 μM as stated, listed as S(-)Cotinine): little effect even at high concentrations in the DA release assay
C[N+]1(C)CCC[C@H]1c1cccnc1 [PIPNMN, S-N'-methyl nicotinium iodide] | 0.03 ± 0.03 | 0.01 ± 0.01 | 0.05 ± 0.02 | did not exhibit significant nicotinic antagonist activity over the concentration range tested | NMNI=S-N-methylcotininium iodide (NMCI)=S-N'-methyl nicotinium iodide (PIPNMN) | – | 3.16 ± 1.46 and 2.98 ± 1.48 and 1.88 ± 0.77 | –
CCCCCCCC[n+]1cccc([C@@H]2CCCN2C)c1 [NONI, S-N-octylnicotinium iodide] | 0.03 ± 0.02 | 0.14 ± 0.14 | 16.4 ± 2.00 | Significant antagonist activity; also recorded: completely inhibited nicotine-evoked [^3 H]DA release; also recorded: Greatest antagonist potency; also recorded: preferred nicotinic receptor antagonist activity; also recorded: most efficacious and potent compound in the series; also recorded: completely blocked the effect of nicotine to evoke [^3 H]DA release | NONI>>DHBE=MEC | possessed intrinsic agonist activity at this high concentration; also recorded: did not possess agonist activity at concentrations which completely blocked nicotine-evoked [^3 H]DA release | – | agonist activity relative to nicotine [1]: three-times the agonist activity of nicotine; effect on [3H]DA release / intrinsic agonist activity (in words) ([1]; 1-100 μM, listed as HONI): evoked [^3 H]DA release and thus, possess intrinsic agonist activity at this concentration; potency relative to mecamylamine and dihydro-β-erythroidine [2]: approximately half that of the classical nicotinic antagonists; concentration for intrinsic agonist activity relative to that required to completely inhibit nicotine-evoked [3H]DA release ([2]; fold higher): 10 fold
C=CCN1CCCC1c1ccc[n+](CC=C)c1 (racemic) [(±)DNANI, (±)di-N-allyl nicotinium iodide] | 0.02 ± 0.01 | 0.08 ± 0.04 | 0.00 ± 0.00 | did not exhibit significant nicotinic antagonist activity over the concentration range tested; also recorded: relatively weak antagonist activity compared to the N-allyl nicotine analogue (NANI) | (±)di-N-allyl nicotinium iodide (DNANI)=(±)N-methyl nornicotinium iodide (NMNNI)=NMNI | – | 2.58 ± 0.54 and 1.85 ± 0.25 and 1.66 ± 0.36 | –
CN1CCC[C@H]1c1ccc[n+](C)c1 [NMNI] | 0.13 ± 0.11 | 0.17 ± 0.10 | 0.08 ± 0.06 | did not exhibit significant nicotinic antagonist activity over the concentration range tested; also recorded: no antagonistic activity; also recorded: devoid of antagonist activity | NMNI=S-N-methylcotininium iodide (NMCI)=S-N'-methyl nicotinium iodide (PIPNMN) | – | – | –
C[n+]1cccc(C2CCCN2)c1 (racemic) [(±)NMNNI, (±)N-methyl nornicotinium iodide] | 0.17 ± 0.11 | 0.01 ± 0.01 | 2.60 ± 0.38 | did not exhibit significant nicotinic antagonist activity over the concentration range tested | (±)di-N-allyl nicotinium iodide (DNANI)=(±)N-methyl nornicotinium iodide (NMNNI)=NMNI | evoked [^3 H]DA release and thus, possess intrinsic agonist activity at this concentration | 2.22 ± 1.26 and 3.53 ± 0.85 | –
c1cncc([C@@H]2CCCN2)c1 (racemic) [(±)nornicotine, racemic nornicotine, reference compound] | – | – | – | – | – | – | – | Emax [1, 3]: ~80%; Emax at 1 µM [1, 3]: 50%; total [3H]overflow (effect on [3H]DA release) ([1]; Table 2, 1 μM): 1.40 ± 0.24; total [3H]overflow (effect on [3H]DA release) ([1]; Table 2, 10 μM): 2.60 ± 0.38; total [3H]overflow (effect on [3H]DA release) ([1]; Table 2, 100 μM): 4.20 ± 0.34; effect on [3H]DA release / intrinsic agonist activity (in words) ([1]; 1-100 μM as stated, listed as Racemic nornicotine): concentration-dependent increase in [^3 H]DA release; effect on [3H]DA release / intrinsic agonist activity (in words) ([1]; 1-100 μM as stated, listed as nornicotine): less potent in producing this effect
